Source: patent publication US8841413B2, “Antidiabetic compounds” (Cadila Healthcare Limited, priority 2006, dated 2014)

Tests used:
C57BL/6J mice = assay: Acute single dose 120-min time-course experiment, in vivo glucose reduction in C57BL/6J mice; parameters: unit not given here; conditions: male C57BL/6J mice, Mean ± SEM
Experimental: All the animal experiments were carried out according to the internationally valid guidelines following approval by the ‘Zydus Research Center animal ethical committee’. […] Two days prior to the study, the animals were randomised and divided into 5 groups (n=6), based upon their fed glucose levels. On the day of experiment, food was withdrawn from all the cages, water was given ad-libitum and were kept for overnight fasting. Vehicle (normal saline)/test/standard compounds were administered intraperitoneally (i.p.) or orally, on a body weight basis. […] Blood samples were centrifuged and the separated serum was immediately subjected for the glucose estimation. Serum for insulin estimation was stored at −70° C. until used for the insulin estimation. The glucose estimation was carried out with DPEC-GOD/POD method (Ranbaxy Fine Chemicals Limited, Diagnostic division, India), using Spectramax-190, in 96-microwell plate reader (Molecular devices Corporation, Sunnyvale, Calif.). […] The AUC and BCAUC obtained from graphs were analyzed for one way ANOVA, followed by Dunnett's post test, using Graph Pad prism software. Furthermore, the insulin estimation was carried out using rat/mouse insulin ELISA kit (Linco research, Mo. USA).

db/db mice = assay: In vivo glucose reduction in db/db mice; conditions: oral (p.o) administration, FIG. 10
Experimental: Acute single dose 120-min time-course experiments were carried out in male C57BL/6J or db/db mice, age 8-12 weeks, bred in-house. Animals were housed in groups of 6 animals per cage, for a week, in order to habituate them to vivarium conditions (25±4° C., 60-65% relative humidity, 12:12 h light:dark cycle, with lights on at 7.30 am). All the animal experiments were carried out according to the internationally valid guidelines following approval by the ‘Zydus Research Center animal ethical committee’. […] Two days prior to the study, the animals were randomised and divided into 5 groups (n=6), based upon their fed glucose levels. On the day of experiment, food was withdrawn from all the cages, water was given ad-libitum and were kept for overnight fasting. Vehicle (normal saline)/test/standard compounds were administered intraperitoneally (i.p.) or orally, on a body weight basis. […] The glucose estimation was carried out with DPEC-GOD/POD method (Ranbaxy Fine Chemicals Limited, Diagnostic division, India), using Spectramax-190, in 96-microwell plate reader (Molecular devices Corporation, Sunnyvale, Calif.). […] The AUC and BCAUC obtained from graphs were analyzed for one way ANOVA, followed by Dunnett's post test, using Graph Pad prism software. […]

Q: Which results are given for `CCc1cc(OC)ccc1-c1ccc(CC(NC(=O)[C@H](CC(=O)O)NC(=O)[C@H](CO)NC(=O)[C@@H](NC(=O)C(C)(Cc2ccccc2F)NC(=O)[C@@H](NC(=O)CNC(=O)[C@H](CCC(N)=O)NC(=O)C(C)(C)NC(=O)[C@@H](N)Cc2c[nH]cn2)[C@@H](C)O)[C@@H](C)O)C(=O)NC(Cc2ccc(-c3ccccc3C(F)(F)F)cc2)C(N)=O)cc1` (single isomer, unassigned) [Seq. ID. No. 32, H-Aib-QGT-(α-Me-2F-Phe)-TSD-Bip(OMe)-Bip(2CF3)]?
A: blood glucose level (C57BL/6J mice; 10 nM/kg, i.p, 0 min): 182 ± 2.3; blood glucose level (C57BL/6J mice; 10 nM/kg, i.p, 30 min): 110 ± 2.3; blood glucose level (C57BL/6J mice; 10 nM/kg, i.p, 60 min): 112 ± 3.0; blood glucose level (C57BL/6J mice; 10 nM/kg, i.p, 120 min): 112 ± 1.9; blood glucose level (C57BL/6J mice; 2 μM/kg, oral, 0 min): 181 ± 2.5; blood glucose level (C57BL/6J mice; 2 μM/kg, oral, 30 min): 117 ± 3.3; blood glucose level (C57BL/6J mice; 2 μM/kg, oral, 60 min): 112 ± 4.0; blood glucose level (C57BL/6J mice; 2 μM/kg, oral, 120 min): 108 ± 2.9; in vivo glucose reduction (in words) (db/db mice): glucose reduction
